Numbered stars: 1 amine (or outer) side, 2 acyl side, 3 side chain; on linkers, the order of the positions; unused ones are H or OH. Square brackets hold non-standard residues; d marks the D form. Peptide text beside a SMILES is read from it. dAla(ψthiazole) = C[C@@H](N[*:1])c1nc(C(=O)[*:2])cs1; Trp(4-OMe) = COc1cccc2[nH]cc(C[C@H](N)C(=O)O)c12; Dha = C=C(N)C(=O)O; Sar = CNCC(=O)O
Key:
[1] = test system: CD31 positive endothelial cells in tumour tissues (SW480 or HCT116); test: Microvessel density (CD31) in tumour tissue after single injection; format: in vivo, mouse
Experimental: This phenotype is often observed with drugs which interfere with blood vessel formation or compounds which directly damage existing tumour vessels. […] This reduction in tumour vasculature was paralleled by an induction of p27^kip1 expression in the CD31 positive endothelial cells. (FIG. 7A). To understand this phenotype in more detail the inventors analyzed primary tumour material by electronic microscopy. As early as 90 minutes after injection the inventors observed swelling of endothelial cell which was followed by a loss of basal membrane attachment and cell-cell contacts (FIG. 4D) in the tumour vasculature. As a result of the apparent loss of cell and basal membrane attachment after Argyrin A treatment many of the examined tumour blood vessels were occluded with endothelial cells or erythrocytes. The destruction of the tumour core which the inventors observed after Argyrin A treatment might therefore be a result of thrombotic occlusion of the affected blood vessels. In contrast the bortezomib induced reduction in CD31 positive cells correlated with the appearance of necrotic endothelial cells (FIG. 4D).
Treatment with Argyrin A or bortezomib was started when these tumours reached a volume of 200 mm3. […] (n=8 Argyrin A, n=8 Bortezomib, n=6 PBS/EtOH) b) The pictures show the macroscopic appearance of a xenotransplant tumour after 10 days of treatment with Argyrin A. Note the large necrotic centre of the explanted tumour. c) After a single injection of Argyrin A (0.15 mg/kg bodyweight) or bortezomib (1.0 mg/kg bodyweight) tumours were explanted at the indicated time points and blood vessels in the tumour tissue were co-stained for CD31 and p27. […] Note the swelling of the endothelial cell (“E”) and the occlusion of the lumen (“L”) by erythrocytes after 90 minutes of Argyrin A treatment. The arrow marks the detachment of endothelial cells after 48 h of Argyrin A treatment. […] Tube length (f) and blood vessel like […] structures were determined using photographs of HUVEC cultures. The micrographs show representative examples of HUVEC cultures under the indicated conditions.
Immunohistochemical staining of mouse tumour tissue, western Blotting and immunofluorescence experiments were done as previously described (Timmerbeul, I. et al. Testing the importance of p27 degradation by the SCFskp2 pathway in murine models of lung and colon cancer. Proc Natl Acad Sci USA 103, 14009-14 (2006). Kossatz, U. et al. C-terminal phosphorylation controls the stability and function of p27^kip1. Embo J 25, 5159-70 (2006).). […]

[2] = test system: SW480 colon carcinoma xenotransplant tumours; test: SW480 xenotransplant tumours in nu/nu mice; format: in vivo, mouse; conditions: for proteasome activity in the primary tumour tissue: single dose
Experimental: At the indicated timepoints 20S proteasome was isolated from peripheral blood cells and the activity of the different proteasome subunits was determined as described (FIG. 1d). b) SW480 colon carcinoma cell lines mixed with matrigel were injected under the skin of nu/nu mice to establish xenotransplant tumours. Treatment with Argyrin A or bortezomib was started when these tumours reached a volume of 200 mm^3. […] The activity of the respective proteasome subunits was determined as described previously (FIG. 1d). e) Determination of the number of p27^kip1 positive cells in tumour tissue after Argyrin A treatment. The pictures show representative samples of immunohistochemical stainings for p27 in tumour tissues after 10 days of Argyrin A treatment. f) Detection of apoptotic cells in xenotransplanted tumours by TUNEL staining of tumour tissues after treatment with Argyrin A or bortezomib. At least 200 cells were counted on five independent sections to quantitate the number of apoptotic cells.
MTT assays were done as previously described (Sasse, F. et al. Argyrins, immunosuppressive cyclic peptides from myxobacteria. I. Production, isolation, physico-chemical and biological properties. J Antibiot (Tokyo) 55, 543-51 (2002)). TUNEL staining of tissue sections was performed on 10 micrometer sections which were deparafinised and treated as recommended by the manufacturer. (In Situ Cell Death Detection Kit, Fluorescein; ROCHE, Cat #11 684 795 910). Flow cytometric analysis of cultured cells was done using a Becton Dickinson fluorescence cytometer as previously described (Malek, N. P. et al. A mouse knock-in model exposes sequential proteolytic pathways that regulate p27^Kip1 in G1 and S phase. Nature 413, 323-7 (2001)). Analysis of the distribution of cells in the cell cycle and the sub-G1 fraction was done using Cell Quest software. A histone-associated-DNA-fragments ELISA was used to determine the number of apoptotic cells according to manufacturers instructions (Roche #11 774425001).
Proteasome assays using proteasome purified from cells or tissues were carried out in a 100 μL reaction volume containing 20 μg proteasome extract, 50 mmol/L EDTA and 60 μmol/L fluorogenic substrate (chymotrypsin-like (CT-L), trypsin-like (T-L) or caspase-like (C-L)) in ATP/DTT lysis buffer at 37° C. The assay buffer was supplemented with a final concentration of 0.05% SDS for the evaluation of the chymotrypsin-like activity and caspase-like activity. The rate of cleavage of fluorogenic peptide substrates was determined by monitoring the fluorescence of released amonomethylcoumarin using a Victor 1420 Multilabel counter (Wallac) at an excitation wavelength of 395 nm and emission wavelength of 460 nm over a period of 60 min.
1×10^7 SW480 cells or HCT116 cells (in 100 microliters DMEM medium and 100 microliters matrigel) were s.c. injected into the flanks of NMRI nu/nu mice. Tumours grew for approx. 18 days until they reached appropriate size (200 mm3). Tumour size was measured with a digital calliper and calculated with the help of the following formula: (Length×width2)*π/6. All experiments were done after review and in accordance with the animal rights and protection agencies of Lower Saxony, Germany.

C=C1NC(=O)[C@@H](C)NC(=O)CNC(=O)[C@H](Cc2c[nH]c3cccc(OC)c23)NC(=O)[C@H](Cc2c[nH]c3ccccc23)NC(=O)c2csc(n2)[C@@H](C)NC(=O)CN(C)C1=O [Argyrin A] (cyclo(W[Trp(4-OMe)]G[dA][Dha][Sar][dAla(ψthiazole)]))
CD31 positive cells remaining ([1]; 72 hours after injection): about 10% | number of CD31 positive endothelial cells ([1]; single injection): significant reduction | start of reduction of CD31 positive endothelial cells after injection ([1]; single injection): ≥ 90 min | size of the xenotransplanted tumours ([2]; SW480, 0.15 mg/kg i.p. every three days): significant reduction | apoptotic cell death, share of all tumor cells ([2]; SW480 xenograft, TUNEL staining): > 60% | p27^kip1 in tumour tissue ([2]; SW480 xenograft, immunohistochemistry): induction | proteasome activity in the primary tumour tissue [2]: significant reduction

CC(C)C[C@H](NC(=O)[C@H](Cc1ccccc1)NC(=O)c1cnccn1)B(O)O [bortezomib, reference compound]
number of CD31 positive endothelial cells ([1]; single injection): reduction | proteasome activity in the primary tumour tissue [2]: significant reduction

— patent US8217071B2, “Use of inhibitors of the degradation of p27, in particular Argyrin and derivatives thereof, for the treatment of proliferative diseases” (Helmholtz Zentrum für Infektionsforschung GmbH, priority 2007, dated 2012)
